Results on 8 compounds are retold here after patent US20010018095A1, “Method of forming a membrant, especially a latex or polymer membrane, including multiple discrete layers” (priority 1987, published 2001).

Each structure is given as a SMILES string.

The conditions of series [1]: candidate solvents for polyurethane and biocide; cited from earlier work.
Series [2] deals with latex-allergic or sensitive users. The series can be described thus: Gentian violet admixed with liquid latex: allergic reactions in users. Conditions: gentian violet admixed with liquid latex prior to membrane formation; 1.5% by weight solution preferred. The source says: According to one aspect of the invention, gentian violet is admixed with liquid latex prior to membrane formation by dipping or spraying techniques. A wide variety of different concentrations may be used, but a 1.5% by weight solution of gentian violet is preferred. […] Other proteing binding biocides may be employed in place of or in combination with gentian violet.

`CCOCCO` [Ethylene glycol monoethyl ether]: the “Hydrogen Bonding” value in series [1] is “medium”.

As to `CC(=O)N(C)C` [Dimethyl acetamide (DMF), Dimethyl acetamide], the “Hydrogen Bonding” value in series [1] is “medium”.

For `C[S+](C)[O-]` [Dimethyl sulfoxide (DMS), Dimethyl sulfoxide], the “Hydrogen Bonding” value in series [1] is reported as “medium”.

On to `Cc1cccc(O)c1` [m-Cresol], for which the “Hydrogen Bonding” value in series [1] is given as “strong”.

In the case of `C1CCOC1` [Tetrahydrofuran (THF), Tetrahydrofuran], the “Hydrogen Bonding” value in series [1] is listed as “medium”.

In the case of `CCC(=O)CC` [Diethyl ketone], the “Hydrogen Bonding” value in series [1] is “medium”.

Regarding `CN(C)c1ccc(C(=C2C=CC(=[N+](C)C)C=C2)c2ccc(N(C)C)cc2)cc1` [gentian violet], the “allergic reactions in latex-allergic or sensitive users” value in series [2] is “minimize allergic reactions”.

Consider `CCC(C)=O` [Methyl ethyl ketone], for which the “Hydrogen Bonding” value in series [1] was “medium”.
